Reference: article PMC10122656, “Siglec-6 mediates the uptake of extracellular vesicles through a noncanonical glycolipid binding pocket” (Nature Communications, 2023)
Several values for one entry are separate records, joined by “and”; a condition that tells them apart may be missing. Identical values can stand only once.

Tests used:
Experiment in all cases: Cell assay (liposome/EV binding, flow cytometry);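 as to liposome binding, fluorescence signal (replicates): AF647 fluorescence intensity from 0.1 mol% AF647–PEG45–DSPE in liposomes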
[1] = target: T1, CHO cells expressing Siglec-6 mutants (C46A, C172A, R to A mutants, F93A, L95A, G175M) (Homo sapiens, UniProt O43699, R90A); type: cell-based; details: sheet Figure S26a, 3% GM3-DAG liposomes, R90A
T1 construct: These new CHO cell lines are the full-length versions of the Siglecs; expressed in transfected cells
Method: (§1) Mutations were introduced into each Siglec via gene overlap extension PCR mutagenesis (primers were ordered through IDT). Mutagenesis primers can be found in Supplementary Tables 2 and 3 for the critical arginine mutants of the entire Siglec family and the additional Siglec-6 mutants respectively.
(§2) 200,000 cells/well were plated into a 96-well U-bottom microplate and centrifuged at 300 × g for 5 min. The cells were then resuspended in 50 µL of 50 µM liposome/50 µg/mL (protein concentration) of EV solution in DMEM F12 5% FBS and incubated at 37 °C for 30 min. Excess liposomes were then removed via centrifuged at 300 × g for 5 min followed by washing the cells with FACS solution. The cells were then resuspended in (1:250 V/V) anti-Siglec-flow buffer (1% V/V FBS, 500 µM, EDTA Hank’s Balanced Salt Solution pH 7.4), solution and left to rest on ice for 30 min. The cells were then centrifuged again at 300 × g for 5 min and the cells were resuspended in FACS buffer solution and were then ready for analysis by flow cytometry. Information regarding antibody clone, catalog number supplier, label isotype, and dilution can be found in Supplementary Table 6. The Siglec-positive cells were gated on for liposome-binding analysis (Supplementary Fig. 1b).
(§3) Flow cytometry measurements were collected on a 5-laser Fortessa X-20 (BD Bioscience). All the resulting data were analyzed using FlowJo (10.5.3) software (BD Biosciences).

[2] = target: T2, CHO cells expressing Siglec-6 mutants (C46A, C172A, R to A mutants, F93A, L95A, G175M) (Homo sapiens, UniProt O43699, E88A); type: cell-based; details: sheet Figure S28b, 3% GM3-DAG liposomes, E88A
T2 construct: These new CHO cell lines are the full-length versions of the Siglecs; expressed in transfected cells
Method: as §1, §2, §3

[3] = target: T3, CHO cells expressing Siglec-6 mutants (C46A, C172A, R to A mutants, F93A, L95A, G175M) (Homo sapiens, UniProt O43699, C172A); type: cell-based; details: sheet Figure S26a, 3% GM3-DAG liposomes, C172A
T3 construct: These new CHO cell lines are the full-length versions of the Siglecs; expressed in transfected cells
Method: as §1, §2, §3

[4] = target: T4, CHO cells expressing Siglec-6 mutants (C46A, C172A, R to A mutants, F93A, L95A, G175M) (Homo sapiens, UniProt O43699, R92A); type: cell-based; details: sheet Figure S26a, 3% GM3-DAG liposomes, R92A
T4 construct: These new CHO cell lines are the full-length versions of the Siglecs; expressed in transfected cells
Method: as §1, §2, §3

[5] = target: T5, CHO cells expressing Siglec-6 mutants (C46A, C172A, R to A mutants, F93A, L95A, G175M) (Homo sapiens, UniProt O43699, E173A); type: cell-based; details: sheet Figure S28b, 3% GM3-DAG liposomes, E173A
T5 construct: These new CHO cell lines are the full-length versions of the Siglecs; expressed in transfected cells
Method: as §1, §2, §3

[6] = target: T6, CHO cells expressing Siglec-6 mutants (C46A, C172A, R to A mutants, F93A, L95A, G175M) (Homo sapiens, UniProt O43699, R101A); type: cell-based; details: sheet Figure S26a, 3% GM3-DAG liposomes, R101A
T6 construct: These new CHO cell lines are the full-length versions of the Siglecs; expressed in transfected cells
Method: as §1, §2, §3

[7] = target: T7, CHO cells expressing Siglec-6 mutants (C46A, C172A, R to A mutants, F93A, L95A, G175M) (Homo sapiens, UniProt O43699, C46A); type: cell-based; details: sheet Figure S26a, 3% GM3-DAG liposomes, C46A
T7 construct: These new CHO cell lines are the full-length versions of the Siglecs; expressed in transfected cells
Method: as §1, §2, §3

[8] = target: T8, CHO cells expressing Siglec-6 mutants (C46A, C172A, R to A mutants, F93A, L95A, G175M) (Homo sapiens, UniProt O43699, Q174A); type: cell-based; details: sheet Figure S28b, 3% GM3-DAG liposomes, Q174A
T8 construct: These new CHO cell lines are the full-length versions of the Siglecs; expressed in transfected cells
Method: as §1, §2, §3

[9] = target: T9, CHO cells expressing Siglec-6 mutants (C46A, C172A, R to A mutants, F93A, L95A, G175M) (Homo sapiens, UniProt O43699, R100A); type: cell-based; details: sheet Figure S26a, 3% GM3-DAG liposomes, R100A
T9 construct: These new CHO cell lines are the full-length versions of the Siglecs; expressed in transfected cells
Method: as §1, §2, §3

[10] = target: T10, CHO cells expressing Siglec-6 mutants (C46A, C172A, R to A mutants, F93A, L95A, G175M) (Homo sapiens, UniProt O43699, L95A); type: cell-based; details: sheet Figure S28b, 3% GM3-DAG liposomes, L95A
T10 construct: These new CHO cell lines are the full-length versions of the Siglecs; expressed in transfected cells
Method: as §1, §2, §3

[11] = target: T11, CHO cells expressing Siglec-6 mutants (C46A, C172A, R to A mutants, F93A, L95A, G175M) (Homo sapiens, UniProt O43699, F93A); type: cell-based; details: sheet Figure S28b, 3% GM3-DAG liposomes, F93A
T11 construct: These new CHO cell lines are the full-length versions of the Siglecs; expressed in transfected cells
Method: as §1, §2, §3

[12] = target: T12, CHO cells expressing Siglec-6 mutants (C46A, C172A, R to A mutants, F93A, L95A, G175M) (Homo sapiens, UniProt O43699, R113A); type: cell-based; details: sheet Figure S26a, 3% GM3-DAG liposomes, R113A
T12 construct: These new CHO cell lines are the full-length versions of the Siglecs; expressed in transfected cells
Method: as §1, §2, §3

[13] = target: T13, CHO cells expressing Siglec-6 mutants (C46A, C172A, R to A mutants, F93A, L95A, G175M) (Homo sapiens, UniProt O43699, G175M); type: cell-based; details: sheet Figure S28b, 3% GM3-DAG liposomes, G175M
T13 construct: These new CHO cell lines are the full-length versions of the Siglecs; expressed in transfected cells
Method: as §1, §2, §3

[14] = target: T14, CHO cells expressing Siglec-6 mutants (C46A, C172A, R to A mutants, F93A, L95A, G175M) (Homo sapiens, UniProt O43699, E87A); type: cell-based; details: sheet Figure S28b, 3% GM3-DAG liposomes, E87A
T14 construct: These new CHO cell lines are the full-length versions of the Siglecs; expressed in transfected cells
Method: as §1, §2, §3

[15] = target: T15, CHO cells expressing Siglec-6 mutants (C46A, C172A, R to A mutants, F93A, L95A, G175M) (Homo sapiens, UniProt O43699, R109A); type: cell-based; details: sheet Figure S26a, 3% GM3-DAG liposomes, R109A
T15 construct: These new CHO cell lines are the full-length versions of the Siglecs; expressed in transfected cells
Method: as §1, §2, §3

[16] = tested on: CHO cells expressing Siglec-6 mutants (C46A, C172A, R to A mutants, F93A, L95A, G175M); type: cell-based, human; details: cell assay
Method: as §1, §2, §3

T8 sequence (O43699 27-453 Q174A): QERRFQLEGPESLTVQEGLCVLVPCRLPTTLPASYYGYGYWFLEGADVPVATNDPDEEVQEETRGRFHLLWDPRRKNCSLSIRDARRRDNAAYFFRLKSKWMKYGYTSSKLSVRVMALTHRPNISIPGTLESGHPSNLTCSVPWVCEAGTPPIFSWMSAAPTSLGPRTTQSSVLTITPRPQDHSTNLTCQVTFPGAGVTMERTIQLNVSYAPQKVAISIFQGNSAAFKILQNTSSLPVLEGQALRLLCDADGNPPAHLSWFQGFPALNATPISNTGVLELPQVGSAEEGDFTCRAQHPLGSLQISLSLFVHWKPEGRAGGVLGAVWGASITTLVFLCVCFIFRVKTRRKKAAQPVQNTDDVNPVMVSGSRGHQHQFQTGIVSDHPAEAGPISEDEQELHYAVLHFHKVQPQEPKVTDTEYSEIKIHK
T5 sequence (O43699 27-453 E173A): as the sequence (O43699 27-453 Q174A) above, with E147A, A148Q counted along it
T9 sequence (O43699 27-453 R100A): as the sequence (O43699 27-453 Q174A) above, with R74A, A148Q counted along it
T7 sequence (O43699 27-453 C46A): as the sequence (O43699 27-453 Q174A) above, with C20A, A148Q counted along it
T6 sequence (O43699 27-453 R101A): as the sequence (O43699 27-453 Q174A) above, with R75A, A148Q counted along it
T1 sequence (O43699 27-453 R90A): as the sequence (O43699 27-453 Q174A) above, with R64A, A148Q counted along it
T10 sequence (O43699 27-453 L95A): as the sequence (O43699 27-453 Q174A) above, with L69A, A148Q counted along it
T13 sequence (O43699 27-453 G175M): as the sequence (O43699 27-453 Q174A) above, with A148Q, G149M counted along it
T3 sequence (O43699 27-453 C172A): as the sequence (O43699 27-453 Q174A) above, with C146A, A148Q counted along it
T2 sequence (O43699 27-453 E88A): as the sequence (O43699 27-453 Q174A) above, with E62A, A148Q counted along it
T4 sequence (O43699 27-453 R92A): as the sequence (O43699 27-453 Q174A) above, with R66A, A148Q counted along it
T15 sequence (O43699 27-453 R109A): as the sequence (O43699 27-453 Q174A) above, with R83A, A148Q counted along it
T11 sequence (O43699 27-453 F93A): as the sequence (O43699 27-453 Q174A) above, with F67A, A148Q counted along it
T14 sequence (O43699 27-453 E87A): as the sequence (O43699 27-453 Q174A) above, with E61A, A148Q counted along it
T12 sequence (O43699 27-453 R113A): as the sequence (O43699 27-453 Q174A) above, with R87A, A148Q counted along it

liposome binding, fluorescence signal (replicates) [1] | liposome binding, fluorescence signal (replicates) [2] | liposome binding, fluorescence signal (replicates) [3] | liposome binding, fluorescence signal (replicates) [4] | liposome binding, fluorescence signal (replicates) [5] | liposome binding, fluorescence signal (replicates) [6] | liposome binding, fluorescence signal (replicates) [7] | liposome binding, fluorescence signal (replicates) [8] | liposome binding, fluorescence signal (replicates) [9] | liposome binding, fluorescence signal (replicates) [10] | liposome binding, fluorescence signal (replicates) [11] | liposome binding, fluorescence signal (replicates) [12] | liposome binding, fluorescence signal (replicates) [13] | liposome binding, fluorescence signal (replicates) [14] | liposome binding, fluorescence signal (replicates) [15] | Compound | 5 nGLL binding to C46A and C172A mutants of Siglec-6 [16] | 5 nGLL binding to F93A, L95A and G175M Siglec-6 mutants [16] | 5 nGLL binding to R109A and R114A Siglec-6 mutants [16] | 5 nGLL binding to R92A and R100A Siglec-6 mutants ([16]; both expressed at low levels)
6321 and 6067 and 6474 and 6517 | 2063 and 2173 and 2053 | 837 and 738 and 839 and 676 | 242 and 228 and 244 and 252 | 1703 and 1773 and 1881 and 1652 | 5191 and 3671 and 4272 and 5125 | 789 and 784 and 873 and 937 | 1364 and 1584 and 1412 | 2485 and 2181 and 2573 and 2894 | 497 and 522 and 557 and 567 | 1045 and 1034 and 1148 | 4924 and 3926 and 3532 and 5592 | 928 and 1026 and 962 and 868 | 2391 and 2152 and 2127 | 3678 and 3427 and 3246 and 4185 | CCCCCCCCCCCCCCCCOCC(COCCCCCCCCCCCCCCCC)OCc1cn(CCO[C@@H]2O[C@H](CO)[C@@H](O[C@@H]3O[C@H](CO)[C@H](O)[C@H](O[C@]4(C(=O)O)C[C@H](O)[C@@H](NC(C)=O)[C@H]([C@H](O)[C@H](O)CO)O4)[C@H]3O)[C@H](O)[C@H]2O)nn1 [GM3-DAG] |  |  |  | 
 |  |  |  |  |  |  |  |  |  |  |  |  |  |  | CCCCCCCCCCCCCCCCOCC(COCCCCCCCCCCCCCCCC)OCc1cn(CCO[C@@H]2O[C@H](CO)[C@@H](O[C@@H]3O[C@H](CO)[C@H](O)[C@H](O[C@]4(C(=O)O)C[C@H](O)[C@@H](NC(C)=O)[C@H]([C@H](O)[C@H](O)CO)O4)[C@H]3O)[C@H](O)[C@H]2O)nn1 [nGL 5] | did not recognize | significantly decreased binding | modest reduction in binding | more pronounced reduction in binding
